This note sets out measurements from patent publication US12440443B2, “Nano-emulsion of CBFβ-RUNX1 inhibitor for ocular drug deliver” (Massachusetts Eye and Ear Infirmary, priority 2017, dated 2025).

This data set is described as follows: Solubility behaviour of Ro5-3335 in aqueous solution. In kind it is physicochemical. An excerpt: The invention provides a solution to many problems and/or drawbacks of earlier ocular formulations and features a nano-emulsion composition, e.g., a nano-emulsion comprising a core binding factor β (CBFβ)-Runt-Related Transcription Factor 1 (RUNX1) (CBFβ-RUNX1) inhibitor. […] With our emulsion, we have devised a composition to encapsulate the drug in a nanonsphere, which allows for suspension in an aqueous solution, and increases availability of the drug, and also improves penetration of ocular tissues.

For `O=C1CN=C(c2ccc[nH]2)c2cc(Cl)ccc2N1` [Ro5-3335, 7-chloro-1,3-dihydro-5-(1h-pyrrol-2y-yl)-2H-1,4-benzodiazepin-2-one], the “solubility in aqueous solution” value was “insoluble in aqueous solution”.
